Reference: ChEMBL document CHEMBL1201861, “Genomics of Drug Sensitity in Cancer screening data, Wellcome Trust Sanger Institute”

Key:
[1] = tested on: G-402; test: cells; type: functional, cell-based; details: Homo sapiens
Description: SANGER: Inhibition of human G-402 cell growth in a cell viability assay.

[2] = tested on: GMS-10; test: cells; type: functional, cell-based; details: Homo sapiens;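 also: growth inhibition of GMS-10 cells, read out as cell viability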
Description: SANGER: Inhibition of human GMS-10 cell growth in a cell viability assay.

[3] = tested on: CAL-33; test: cells; type: functional, cell-based; details: Homo sapiens;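 also: growth inhibition of CAL-33 cells, read out with a cell viability assay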
Description: SANGER: Inhibition of human CAL-33 cell growth in a cell viability assay.

[4] = tested on: UO-31; test: cells; type: functional, cell-based; details: Homo sapiens
Description: SANGER: Inhibition of human U031 cell growth in a cell viability assay.

[5] = tested on: CAPAN-1; test: cells; type: functional, cell-based; details: Homo sapiens;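 also: growth suppression of CAPAN-1 cells, read out by a cell viability assay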
Description: SANGER: Inhibition of human CAPAN-1 cell growth in a cell viability assay.

[6] = tested on: NCI-H1573; test: cells; type: functional, cell-based; details: Homo sapiens;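 also: growth inhibition of NCI-H1573 cells, read out with a cell viability assay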
Description: SANGER: Inhibition of human NCI-H1573 cell growth in a cell viability assay.

[7] = tested on: A 172; test: cells; type: functional, cell-based; details: Homo sapiens;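 also: growth inhibition of A172 cells, measured with a cell viability readout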
Description: SANGER: Inhibition of human A172 cell growth in a cell viability assay.

[8] = tested on: GP5d; test: cells; type: functional, cell-based; details: Homo sapiens;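 also: growth inhibition of human GP5d cells, read out with a cell viability assay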
Description: SANGER: Inhibition of human GP5d cell growth in a cell viability assay.

[9] = tested on: Panc1005; test: cells; type: functional, cell-based; details: Homo sapiens;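 also: growth inhibition of human PANC-10-05 cells, measured by a cell viability assay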
Description: SANGER: Inhibition of human PANC-10-05 cell growth in a cell viability assay.

[10] = tested on: IGROV-1; test: cells; type: functional, cell-based; details: Homo sapiens;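 also: reduction of IGROV-1 cell growth, read out with a viability assay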
Description: SANGER: Inhibition of human IGROV-1 cell growth in a cell viability assay.

[11] = tested on: HCC70; test: cells; type: functional, cell-based; details: Homo sapiens;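 also: cell viability assay measuring how strongly the compound suppresses proliferation of HCC70 cells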
Description: SANGER: Inhibition of human HCC70 cell growth in a cell viability assay.

[12] = tested on: Daoy; test: cells; type: functional, cell-based; details: Homo sapiens;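 also: daoy cell growth inhibition, read out as cell viability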
Description: SANGER: Inhibition of human Daoy cell growth in a cell viability assay.

[13] = tested on: CAL-54; test: cells; type: functional, cell-based; details: Homo sapiens;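 also: growth inhibition of CAL-54 cells, read out by a viability measurement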
Description: SANGER: Inhibition of human CAL-54 cell growth in a cell viability assay.

[14] = tested on: TYK-nu; test: cells; type: functional, cell-based; details: Homo sapiens;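 also: growth inhibition of human TYK-nu cells, read out by a cell viability assay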
Description: SANGER: Inhibition of human TYK-nu cell growth in a cell viability assay.

[15] = tested on: Detroit 562; test: cells; type: functional, cell-based; details: Homo sapiens;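 also: growth inhibition of human Detroit 562 cells, read out by a cell viability assay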
Description: SANGER: Inhibition of human Detroit562 cell growth in a cell viability assay.

[16] = tested on: SNU-449; test: cells; type: functional, cell-based; details: Homo sapiens
Description: SANGER: Inhibition of human SNU-449 cell growth in a cell viability assay.

[17] = tested on: BFTC-905; test: cells; type: functional, cell-based; details: Homo sapiens
Description: SANGER: Inhibition of human BFTC-905 cell growth in a cell viability assay.

[18] = tested on: HT-1376; test: cells; type: functional, cell-based; details: Homo sapiens
Description: SANGER: Inhibition of human HT-1376 cell growth in a cell viability assay.

[19] = tested on: HuP-T3; test: cells; type: functional, cell-based; details: Homo sapiens;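 also: HuP-T3 cell growth inhibition, read out with a cell viability assay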
Description: SANGER: Inhibition of human HuP-T3 cell growth in a cell viability assay.

[20] = tested on: SAS; test: cells; type: functional, cell-based; details: Homo sapiens;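 also: growth inhibition of SAS cells, read out with a cell viability assay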
Description: SANGER: Inhibition of human SAS cell growth in a cell viability assay.

[21] = tested on: C3A; test: cells; type: functional, cell-based; details: Homo sapiens;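 also: growth inhibition of C3A human cells, quantified with a cell viability readout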
Description: SANGER: Inhibition of human C3A cell growth in a cell viability assay.

[22] = tested on: HTC-C3; test: cells; type: functional, cell-based; details: Homo sapiens;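 also: inhibition of cell growth, read out with a cell viability assay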
Description: SANGER: Inhibition of human HTC-C3 cell growth in a cell viability assay.

[23] = tested on: HEC-1; test: cells; type: functional, cell-based; details: Homo sapiens;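 also: growth inhibition of the cell line, read out with a cell viability assay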
Description: SANGER: Inhibition of human HEC-1 cell growth in a cell viability assay.

[24] = tested on: MeWo; test: cells; type: functional, cell-based; details: Homo sapiens;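 also: growth inhibition of MeWo cells, determined by a cell viability readout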
Description: SANGER: Inhibition of human Mewo cell growth in a cell viability assay.

[25] = tested on: HT-29; test: cells; type: functional, cell-based; details: Homo sapiens;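 also: growth inhibition of human HT-29 cells, read out by a cell viability assay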
Description: SANGER: Inhibition of human HT-29 cell growth in a cell viability assay.

[26] = tested on: MHH-ES-1; test: cells; type: functional, cell-based; details: Homo sapiens
Description: SANGER: Inhibition of human MHH-ES-1 cell growth in a cell viability assay.

[27] = tested on: MEL-HO; test: cells; type: functional, cell-based; details: Homo sapiens
Description: SANGER: Inhibition of human MEL-HO cell growth in a cell viability assay.

[28] = tested on: NCI-H2087; test: cells; type: functional, cell-based; details: Homo sapiens;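 also: growth inhibition determined with a cell viability readout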
Description: SANGER: Inhibition of human NCI-H2087 cell growth in a cell viability assay.

[29] = tested on: NCI-H460; test: cells; type: functional, cell-based; details: Homo sapiens;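 also: cell viability assay scoring growth inhibition of human NCI-H460 cells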
Description: SANGER: Inhibition of human NCI-H460 cell growth in a cell viability assay.

[30] = tested on: HN; test: cells; type: functional, cell-based; details: Homo sapiens
Description: SANGER: Inhibition of human HN cell growth in a cell viability assay.

[31] = tested on: BHT-101; test: cells; type: functional, cell-based; details: Homo sapiens
Description: SANGER: Inhibition of human BHT-101 cell growth in a cell viability assay.

[32] = tested on: VMRC-RCZ; test: cells; type: functional, cell-based; details: Homo sapiens
Description: SANGER: Inhibition of human VMRC-RCZ cell growth in a cell viability assay.

[33] = tested on: DU-145; test: cells; type: functional, cell-based; details: Homo sapiens
Description: SANGER: Inhibition of human DU-145 cell growth in a cell viability assay.

[34] = tested on: HSC-3; test: cells; type: functional, cell-based; details: Homo sapiens
Description: SANGER: Inhibition of human HSC-3 cell growth in a cell viability assay.

[35] = tested on: U2OS; test: cells; type: functional, cell-based, U-2-OS; details: Homo sapiens;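 also: growth inhibition of human U-2-OS cells, determined with a cell viability assay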
Description: SANGER: Inhibition of human U-2-OS cell growth in a cell viability assay.

[36] = tested on: MDA-MB-415; test: cells; type: functional, cell-based; details: Homo sapiens
[37] = tested on: HCT-116; test: cells; type: functional, cell-based; details: Homo sapiens
Description: SANGER: Inhibition of human HCT-116 cell growth in a cell viability assay.

[38] = tested on: 23132-87; test: cells; type: functional, cell-based; details: Homo sapiens
Description: SANGER: Inhibition of human 23132-87 cell growth in a cell viability assay.

[39] = tested on: T-24; test: cells; type: functional, cell-based; details: Homo sapiens;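 also: growth inhibition of T-24 cells, read out with a cell viability assay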
Description: SANGER: Inhibition of human T-24 cell growth in a cell viability assay.

[40] = tested on: RPMI-7951; test: cells; type: functional, cell-based; details: Homo sapiens
Description: SANGER: Inhibition of human RPMI-7951 cell growth in a cell viability assay.

[41] = tested on: CAMA-1; test: cells; type: functional, cell-based; details: Homo sapiens;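 also: growth inhibition of CAMA-1 cells, read out with a cell viability assay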
Description: SANGER: Inhibition of human CAMA-1 cell growth in a cell viability assay.

[42] = tested on: HuCCT-1; test: cells; type: functional, cell-based, HuCCT1; details: Homo sapiens;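 also: growth inhibition of HuCCT-1 cells, read out by a cell viability assay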
Description: SANGER: Inhibition of human HuCCT1 cell growth in a cell viability assay.

[43] = tested on: NCI-H441; test: cells; type: functional, cell-based; details: Homo sapiens;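 also: growth inhibition of NCI-H441 cells, read out with a cell viability assay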
Description: SANGER: Inhibition of human NCI-H441 cell growth in a cell viability assay.

[44] = tested on: KP-N-YN; test: cells; type: functional, cell-based; details: Homo sapiens;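 also: growth inhibition of KP-N-YN cells, read out with a cell viability assay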
Description: SANGER: Inhibition of human KP-N-YN cell growth in a cell viability assay.

[45] = tested on: SCC-9; test: cells; type: functional, cell-based; details: Homo sapiens;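 also: Read-out is a cell viability assay, with values giving inhibition of cell growth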
Description: SANGER: Inhibition of human SCC-9 cell growth in a cell viability assay.

[46] = tested on: 639-V; test: cells; type: functional, cell-based; details: Homo sapiens;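 also: growth inhibition of 639-V cells, read out with a cell viability assay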
Description: SANGER: Inhibition of human 639-V cell growth in a cell viability assay.

[47] = tested on: SW780; test: cells; type: functional, cell-based; details: Homo sapiens;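 also: growth inhibition of the cells, read out with a cell viability assay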
Description: SANGER: Inhibition of human SW780 cell growth in a cell viability assay.

[48] = tested on: COLO-678; test: cells; type: functional, cell-based; details: Homo sapiens
Description: SANGER: Inhibition of human COLO-678 cell growth in a cell viability assay.

[49] = tested on: CAL-85-1; test: cells; type: functional, cell-based; details: Homo sapiens;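 also: growth inhibition of human CAL-85-1 cells, read out with a cell viability assay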
Description: SANGER: Inhibition of human CAL-85-1 cell growth in a cell viability assay.

[50] = tested on: CHP-212; test: cells; type: functional, cell-based; details: Homo sapiens
Description: SANGER: Inhibition of human CHP-212 cell growth in a cell viability assay.

[51] = tested on: ARH-77; test: cells; type: functional, cell-based; details: Homo sapiens;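 also: growth inhibition of ARH-77 cells, read out by a cell viability assay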
Description: SANGER: Inhibition of human ARH-77 cell growth in a cell viability assay.

[52] = tested on: KARPAS-422; test: cells; type: functional, cell-based; details: Homo sapiens
Description: SANGER: Inhibition of human KARPAS-422 cell growth in a cell viability assay.

[53] = tested on: SR; test: cells; type: functional, cell-based; details: Homo sapiens
Description: SANGER: Inhibition of human SR cell growth in a cell viability assay.

[54] = tested on: WSU-NHL; test: cells; type: functional, cell-based; details: Homo sapiens;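 also: growth inhibition of human WSU-NHL cells, read out with a cell viability assay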
Description: SANGER: Inhibition of human WSU-NHL cell growth in a cell viability assay.

[55] = tested on: BL-70; test: SANGER: Inhibition of human BL-70 cell growth in a cell viability assay.; type: functional, cell-based
[56] = tested on: GDM-1; test: cells; type: functional, cell-based; details: Homo sapiens;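 also: cell viability readout used to measure growth inhibition of human GDM-1 cells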
Description: SANGER: Inhibition of human GDM-1 cell growth in a cell viability assay.

[57] = tested on: OPM-2; test: cells; type: functional, cell-based; details: Homo sapiens;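 also: growth of OPM-2 cells measured with a viability assay, IC50 for suppression of proliferation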
Description: SANGER: Inhibition of human OPM-2 cell growth in a cell viability assay.

[58] = tested on: NALM-6; test: cells; type: functional, cell-based; details: Homo sapiens;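 also: growth inhibition of NALM-6 cells, read out with a cell viability assay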
Description: SANGER: Inhibition of human NALM-6 cell growth in a cell viability assay.

[59] = tested on: NCCIT; test: SANGER: Inhibition of human NCCIT cell growth in a cell viability assay.; type: functional, cell-based
[60] = tested on: DK-MG; test: cells; type: functional, cell-based; details: Homo sapiens;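 also: growth inhibition of DK-MG cells, read out with a cell viability assay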
Description: SANGER: Inhibition of human DK-MG cell growth in a cell viability assay.

[61] = tested on: FTC-133; test: cells; type: functional, cell-based; details: Homo sapiens
[62] = tested on: SK-MEL3; test: cells; type: functional, cell-based, SK-MEL-3; details: Homo sapiens;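 also: growth inhibition of human SK-MEL-3 cells, read out with a cell viability assay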
Description: SANGER: Inhibition of human SK-MEL-3 cell growth in a cell viability assay.

[63] = tested on: SUP-T1; test: cells; type: functional, cell-based; details: Homo sapiens;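 also: growth inhibition of human SUP-T1 cells, read out as cell viability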
Description: SANGER: Inhibition of human SUP-T1 cell growth in a cell viability assay.

Compound `NC(=O)c1ncn([C@@H]2O[C@H](COP(=O)(O)O)[C@@H](O)[C@H]2O)c1N` has an IC50 [1] of 1320 µM, an IC50 [2] of 663 µM and an IC50 [3] of 1310 µM. The IC50 [4] was 766 µM, the IC50 [5] was over 2000 µM and the IC50 [6] was 353 µM. For the same compound, the IC50 [7] was over 2000 µM, the IC50 [8] was 1770 µM and the IC50 [9] was over 2000 µM. It also gave an IC50 [10] of over 2000 µM, an IC50 [11] of 1270 µM and an IC50 [12] of 1510 µM. For the same compound, the IC50 [13] was over 2000 µM, the IC50 [14] was over 2000 µM and the IC50 [15] was 1220 µM. The IC50 [16] was over 2000 µM, the IC50 [17] was over 2000 µM and the IC50 [18] was over 2000 µM. The IC50 [19] was 1350 µM, the IC50 [20] was 746 µM and the IC50 [21] was over 2000 µM. For the same compound, the IC50 [22] was 252 µM, the IC50 [23] was over 2000 µM and the IC50 [24] was over 2000 µM. For the same compound, the IC50 [25] was over 2000 µM, the IC50 [26] was 1510 µM and the IC50 [27] was 397 µM. The IC50 [28] was over 2000 µM, the IC50 [29] was 1360 µM and the IC50 [30] was 252 µM. It also gave an IC50 [31] of over 2000 µM, an IC50 [32] of over 2000 µM and an IC50 [33] of over 2000 µM. It also gave an IC50 [34] of 259 µM, an IC50 [35] of over 2000 µM and an IC50 [36] of 655 µM. For the same compound, the IC50 [37] was 424 µM, the IC50 [38] was over 2000 µM and the IC50 [39] was over 2000 µM. For the same compound, the IC50 [40] was 1580 µM, the IC50 [41] was 354 µM and the IC50 [42] was 1080 µM. For the same compound, the IC50 [43] was over 2000 µM, the IC50 [44] was over 2000 µM and the IC50 [45] was over 2000 µM. It also gave an IC50 [46] of over 2000 µM, an IC50 [47] of over 2000 µM and an IC50 [48] of over 2000 µM.

Work on `CO[C@@]12[C@H](COC(N)=O)C3=C(C(=O)C(C)=C(N)C3=O)N1C[C@@H]1N[C@@H]12` [MITOMYCIN] yielded an IC50 [1] of 0.0859 µM, an IC50 [2] of 3.84 µM and an IC50 [3] of 0.537 µM. It also gave an IC50 [49] of 0.0659 µM, an IC50 [4] of 0.366 µM and an IC50 [5] of 0.116 µM. For the same compound, the IC50 [6] was 1.46 µM, the IC50 [7] was 0.538 µM and the IC50 [8] was 0.084 µM. For the same compound, the IC50 [9] was 0.0737 µM, the IC50 [10] was 0.106 µM and the IC50 [11] was 0.694 µM. For the same compound, the IC50 [12] was 0.088 µM, the IC50 [50] was under 0.0625 µM and the IC50 [13] was 1.84 µM. For the same compound, the IC50 [14] was 0.0587 µM, the IC50 [15] was 0.17 µM and the IC50 [16] was 3.36 µM. For the same compound, the IC50 [51] was 0.243 µM, the IC50 [17] was 0.0927 µM and the IC50 [52] was 0.907 µM. For the same compound, the IC50 [53] was under 0.0625 µM, the IC50 [18] was 0.967 µM and the IC50 [19] was 0.711 µM. The IC50 [20] was 0.615 µM, the IC50 [54] was 0.192 µM and the IC50 [21] was 0.194 µM. For the same compound, the IC50 [55] was 1.28 µM, the IC50 [22] was 5.79 µM and the IC50 [56] was 0.377 µM. It also gave an IC50 [57] of 6.35 µM, an IC50 [58] of under 0.0625 µM and an IC50 [59] of 1.01 µM. For the same compound, the IC50 [23] was 0.698 µM, the IC50 [24] was 9.55 µM and the IC50 [25] was 0.036 µM. It also gave an IC50 [26] of 0.0163 µM, an IC50 [27] of 0.0394 µM and an IC50 [28] of 0.0857 µM. It also gave an IC50 [60] of over 16 µM, an IC50 [29] of under 0.0625 µM and an IC50 [30] of 0.783 µM. For the same compound, the IC50 [31] was 1.74 µM, the IC50 [32] was 0.199 µM and the IC50 [61] was 0.517 µM. For the same compound, the IC50 [33] was under 0.0625 µM, the IC50 [34] was 0.0755 µM and the IC50 [35] was over 16 µM. It also gave an IC50 [36] of 0.724 µM, an IC50 [37] of 1.02 µM and an IC50 [38] of 0.0305 µM. For the same compound, the IC50 [62] was 0.711 µM, the IC50 [39] was 0.246 µM and the IC50 [40] was 0.168 µM. For the same compound, the IC50 [63] was 0.11 µM, the IC50 [41] was 0.541 µM and the IC50 [42] was 0.904 µM. It also gave an IC50 [43] of 0.0176 µM, an IC50 [45] of 3.79 µM and an IC50 [46] of under 0.0625 µM. The IC50 [47] was over 16 µM and the IC50 [48] was 2.89 µM.
